Laboratory results as given in publication PMC11638965, “Leveraging Dual-Ligase Recruitment to Enhance Protein Degradation via a Heterotrivalent Proteolysis Targeting Chimera” (Journal of the American Chemical Society, 2024).

Tests used:
[1] = target: T1, BRD2 (Homo sapiens, UniProt P25440); assay: Live cell kinetic HiBiT degradation assay, HiBiT-BRD2 HEK293 cells; format: cell-based; details: for DC50: HiBiT-BRD2 CRISPR knock-in HEK293 cells, live cell kinetic degradation, 24 h, read-out: Dmax 50 BRD2; for λmax BRD2 (degradation rate): HiBiT-BRD2 knock-in HEK293 cells
T1 construct: HiBiT, is appended to the N-terminus of endogenous BRD2, BRD3, and BRD4; endogenous in cells
T1 sequence (P25440 whole entry): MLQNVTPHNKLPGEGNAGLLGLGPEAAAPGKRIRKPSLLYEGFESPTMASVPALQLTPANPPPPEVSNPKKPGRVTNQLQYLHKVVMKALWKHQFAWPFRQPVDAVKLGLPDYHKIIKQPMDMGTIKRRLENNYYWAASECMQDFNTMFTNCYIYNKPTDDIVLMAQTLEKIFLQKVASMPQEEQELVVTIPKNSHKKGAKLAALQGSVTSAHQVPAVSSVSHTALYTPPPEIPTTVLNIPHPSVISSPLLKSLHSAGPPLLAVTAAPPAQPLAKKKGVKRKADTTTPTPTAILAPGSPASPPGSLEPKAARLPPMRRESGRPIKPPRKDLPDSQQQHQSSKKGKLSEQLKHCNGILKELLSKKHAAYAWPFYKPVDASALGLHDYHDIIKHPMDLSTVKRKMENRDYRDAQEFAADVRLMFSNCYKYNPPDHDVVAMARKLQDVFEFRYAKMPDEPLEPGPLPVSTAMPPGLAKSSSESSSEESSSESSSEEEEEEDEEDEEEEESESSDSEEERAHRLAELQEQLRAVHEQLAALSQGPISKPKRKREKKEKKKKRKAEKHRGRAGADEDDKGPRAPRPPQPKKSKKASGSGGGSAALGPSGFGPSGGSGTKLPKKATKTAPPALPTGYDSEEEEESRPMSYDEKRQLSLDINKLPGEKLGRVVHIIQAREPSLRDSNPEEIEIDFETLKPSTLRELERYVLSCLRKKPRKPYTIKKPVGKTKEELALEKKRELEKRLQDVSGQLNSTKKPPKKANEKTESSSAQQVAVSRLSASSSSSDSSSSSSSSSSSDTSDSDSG
Procedure: (§1) HEK293 HiBiT-BRD2 (LgBiT stable), HEK293 HiBiT-BRD3 (LgBiT stable), and HEK293 HiBiT-BRD4 (LgBiT stable) were created using CRISPR/Cas9 to insert at HiBiT tag at the N-terminal genomic loci of BRD2, BRD3, or BRD4 in a cell line stably expressing LgBiT protein as described previously.[23]
(§2) For kinetic degradation experiments, HEK293 HiBiT-BRD2, 3, or 4 (LgBiT stable) cells and HEK293 HiBiT-BRD4 (LgBiT) CRBN KO and VHL KO cells were plated at 20,000 cells/well in DMEM +10% FBS in white 96-well tissue culture plates and allowed to adhere overnight. The next day, media was removed and 90 μL of prewarmed CO2-independent medium (Gibco) containing Endurazine (Promega) at a 1:100 dilution from stock was added. Plates were incubated at 37 °C for 3 h to allow luminescence to equilibrate. A threefold dilution series of each PROTAC at 10x the desired final concentration was prepared (with the amount of DMSO in each treatment condition kept constant). After luminescence equilibration, a preread luminescence measurement was taken (prior to compound addition) to allow for baseline normalization to account for possible plating differences. Cells were then treated with 10 μL of the prepared PROTAC dilution series (in triplicate or quadruplicate). Treated plates were placed in a GloMax Discover luminometer (Promega) prewarmed to 37 °C and luminescence measurements were obtained every 7 min for 24 h. Kinetic degradation plots were obtained by first normalizing time course luminescence readings in each well to the preread measurement, then to the average value of the DMSO only control at each time point. Data was analyzed using GraphPad Prism (version 8) and excel. Dmax values were identified as the lowest luminescence reading in each well. Rate constant values were calculated using a one phase exponential decay Y = (Y0-Plateau) e(K*^X) + Plateau using Prism (Y0 constrained to 1). Dmax 50 values were calculated by plotting Dmax as a function of concentration, then fitting plots using the following equation: [drawing 1] to determine IC50.

[2] = target: T2, BRD3 (Homo sapiens, UniProt Q15059); assay: Live cell kinetic HiBiT degradation assay, HiBiT-BRD3 HEK293 cells; format: cell-based; details: for DC50: HiBiT-BRD3 CRISPR knock-in HEK293 cells, live cell kinetic degradation, 24 h, read-out: Dmax 50 BRD3; for λmax BRD3 (degradation rate): HiBiT-BRD3 knock-in HEK293 cells
T2 construct: HiBiT, is appended to the N-terminus of endogenous BRD2, BRD3, and BRD4; endogenous in cells
T2 sequence (Q15059 whole entry): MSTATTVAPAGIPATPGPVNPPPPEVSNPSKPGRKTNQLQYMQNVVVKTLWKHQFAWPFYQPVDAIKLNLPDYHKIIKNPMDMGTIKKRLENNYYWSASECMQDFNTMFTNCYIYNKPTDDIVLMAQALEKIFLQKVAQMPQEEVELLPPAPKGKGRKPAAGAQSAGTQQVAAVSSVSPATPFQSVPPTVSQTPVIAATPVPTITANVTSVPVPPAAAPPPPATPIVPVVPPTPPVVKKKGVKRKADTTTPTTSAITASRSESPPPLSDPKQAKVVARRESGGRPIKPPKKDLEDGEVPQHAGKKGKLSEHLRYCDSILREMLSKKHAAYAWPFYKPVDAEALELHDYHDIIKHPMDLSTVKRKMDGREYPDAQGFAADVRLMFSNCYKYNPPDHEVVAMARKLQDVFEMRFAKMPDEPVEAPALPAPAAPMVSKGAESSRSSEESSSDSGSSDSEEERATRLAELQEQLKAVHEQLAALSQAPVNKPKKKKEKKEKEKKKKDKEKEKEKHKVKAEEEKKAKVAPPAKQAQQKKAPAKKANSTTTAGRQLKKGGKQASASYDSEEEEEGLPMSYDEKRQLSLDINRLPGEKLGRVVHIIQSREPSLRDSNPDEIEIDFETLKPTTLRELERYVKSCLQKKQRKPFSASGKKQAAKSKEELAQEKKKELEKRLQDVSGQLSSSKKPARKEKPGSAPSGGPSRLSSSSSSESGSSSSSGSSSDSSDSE
Procedure: as §1, §2

[3] = target: T1, BRD2; assay: Western blot dose-response degradation in HEK293 cells; format: cell-based; details: 6 h, mean ± S.E.M. of three experiments, values marked b mean ± S.D. of two
Procedure: (§3) HEK293 cells were obtained from ATCC. HEK293 was cultured in DMEM supplemented with 10% (v/v) fetal bovine serum (FBS), 1% […] and 1% (v/v) penicillin/streptomycin (pen/strep) at 37 °C, 5% CO2, and 95% humidity.
(§4) HEK293 cells were plated at a density of 5 × 10^5 cells per well of a six well plate a day prior to initiation of the experiment. Compounds were dissolved to a 10 mM concentrated stock solution in DMSO from which the compounds were further diluted to a working concentration range of 1 μM to 100 pM in DMEM and was subsequently added to cells at the initiation of the experiment. An additional vehicle control was added to cells alongside compound treatments. Cells were left to incubate with compound for 6 h at 37 °C, 5% CO2, and 95% humidity. Cells were then subsequently washed twice with PBS before being harvested in RIPA buffer supplemented with protease inhibitor cocktail and Benzonase Nuclease before being store at −20 °C.
(§5) Protein concentration was determined using the BCA assay. Samples were then prepared in LDS buffer containing 5% 1 M DTT and subsequently loaded onto NuPAGE 4–12% Bis-Tris Midi gels, followed by the transfer of the proteins onto nitrocellulose membranes. The membranes were blocked for 1 h prior to incubation with the primary antibodies using 5% Milk TBST. Membranes were incubated at 4 °C in either BRD4(Ab128874), BRD3(Ab50818), BRD2(Ab139690), VHL(CST#68547) and CRBN(CST#71810) primary antibody overnight. Following overnight incubation, the membranes were incubated with complementary IRDye 800CW secondary antibody and a hFAB Rhodamine Anti-Tubulin Primary Antibody (loading control) for 1 h and then imaged with a Bio-Rad imager. All Western blots were analyzed for band intensities using Image Lab (Bio-Rad). The data extracted from these blots were then plotted and analyzed using Prism (v. 10.2.2, GraphPad). Linear regression curve fitting was used to calculate pDC50 values. The standard deviation of the pDC50 was calculated for all compounds that had two independent repeats and the standard error of the mean calculated for all compounds that had three independent repeats. All Western blotting figures were developed in Adobe illustrator.

[4] = target: T2, BRD3; assay: as above; format: cell-based; details: 6 h, mean ± S.E.M. of three experiments, values marked b mean ± S.D. of two
Procedure: as §3, §4, §5

[5] = target: T3, BRD4^Long (Homo sapiens, UniProt O60885); assay: as above; format: cell-based; details: HEK293 cells, 6 h, Western blot; mean ± S.E.M. of three experiments, values marked b mean ± S.D. of two
T3 construct: Western blot data for BET, CRBN and VHL protein levels; endogenous in cells; host or cells: HEK293 (ATCC)
Procedure: as §3, §4, §5

[6] = target: T4, BRD4^Short (Homo sapiens, UniProt O60885); assay: as above; format: cell-based; details: 6 h, mean ± S.E.M. of three experiments, values marked b mean ± S.D. of two
T4 construct: Western blot data for BET, CRBN and VHL protein levels; endogenous in cells; host or cells: HEK293 (ATCC)
Procedure: as §3, §4, §5

[7] = system: K562 cells; assay: Cell viability assay (CellTiter-Glo); format: cell-based, human; details: Homo sapiens; WT K562, 5.12 pM to 10 uM, n = 3 (Table S4)
[8] = system: KBM7 cells; assay: Cell viability assay (CellTiter-Glo); format: cell-based, human; details: Homo sapiens, KBM-7; WT KBM7, 5.12 pM to 10 uM, n = 3 (Table S4)
[9] = target: CRBN (Homo sapiens, UniProt Q96SW2); assay: Western blot dose-response degradation in HEK293 cells; format: cell-based; parameters: Western blot data for BET, CRBN and VHL protein levels; endogenous in cells; host or cells: HEK293 (ATCC); details: for DC50: HEK293 cells, 6 h, Western blot, mean ± S.E.M. of three experiments, values marked b mean ± S.D. of two
CRBN, sequence (Q96SW2 whole entry): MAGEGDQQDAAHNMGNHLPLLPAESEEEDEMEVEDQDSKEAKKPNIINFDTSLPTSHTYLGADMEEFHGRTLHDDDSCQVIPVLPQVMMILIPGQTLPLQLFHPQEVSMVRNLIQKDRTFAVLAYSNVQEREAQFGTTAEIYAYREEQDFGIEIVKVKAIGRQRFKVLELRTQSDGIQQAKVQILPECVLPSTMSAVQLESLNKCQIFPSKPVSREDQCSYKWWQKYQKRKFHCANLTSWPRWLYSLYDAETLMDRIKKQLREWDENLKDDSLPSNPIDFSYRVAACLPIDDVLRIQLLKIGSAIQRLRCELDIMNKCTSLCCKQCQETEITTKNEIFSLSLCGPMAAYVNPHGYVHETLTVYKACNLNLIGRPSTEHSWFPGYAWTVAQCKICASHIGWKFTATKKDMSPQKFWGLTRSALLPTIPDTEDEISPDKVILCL
Procedure: as §3, §4, §5

DC50 [1] | λmax BRD2 (degradation rate) [1] | DC50 [2] | λmax BRD3 (degradation rate) [2] | DC50 [3] | DC50 [4] | DC50 [5] | DC50 [6] | EC50 [7] | DC50 [9] | fold increase in CRBN degradation vs nonmethylated matched pair ([9]; 27 vs 26, 24 vs 23, DC50, HEK293 Western blot) | SMILES | EC50 [8]
0.0047 µM | 1.72 h⁻¹ | 0.0015 µM | 2.54 h⁻¹ | 0.014 ± 0.0046 µM | 0.0048 ± 0.0024 µM | 0.00076 ± 0.0001 µM | 0.0032 ± 0.0009 µM | 0.0741 µM | 0.2 ± 0.031 µM |  | Cc1ncsc1-c1ccc(CNC(=O)[C@@H]2C[C@@H](O)CN2C(=O)[C@@H](NC(=O)COCC(C)(COCCOCCOCCNc2cc3c(cc2F)C(=O)N(C2CCC(=O)NC2=O)C3=O)COCCOCCOCCOC(=O)C[C@@H]2N=C(c3ccc(Cl)cc3)c3c(sc(C)c3C)-n3c(C)nnc32)C(C)(C)C)cc1 (mixture of isomers) [AB3063 (26), (17S)-11-((2-(2-(2-((2-(2,6-dioxopiperidin-3-yl)-6-fluoro-1,3-dioxoisoindolin-5-yl)amino)ethoxy)ethoxy)ethoxy)methyl)-17-((2S,4R)-4-hydroxy-2-((4-(4-methylthiazol-5-yl)benzyl)carbamoyl)pyrrolidine-1-carbonyl)-11,18,18-trimethyl-15-oxo-3,6,9,13-tetraoxa-16-azanonadecyl 2-((S)-4-(4-chlorophenyl)-2,3,9-trimethyl-6H-thieno[3,2-f][1,2,4]triazolo[4,3-a][1,4]diazepin-6-yl)acetate] | 0.0212 µM
0.074 µM | 1.34 h⁻¹ | 0.0081 µM | 1.69 h⁻¹ | 0.075 ± 0.02 µM | 0.028 ± 0.0008 µM | 0.012 ± 0.0024 µM | 0.018 ± 0.0033 µM | 0.369 µM | 0.48 ± 0.37 µM |  | Cc1ncsc1-c1ccc(CNC(=O)[C@@H]2C[C@@H](O)CN2C(=O)[C@@H](NC(=O)COCC(C)(COCCOCCOCCNc2cccc3c2C(=O)N(C2CCC(=O)NC2=O)C3=O)COCCOCCOC(=O)C[C@@H]2N=C(c3ccc(Cl)cc3)c3c(sc(C)c3C)-n3c(C)nnc32)C(C)(C)C)cc1 (mixture of isomers) [AB3064 (25), (14S)-8-((2-(2-(2-((2-(2,6-dioxopiperidin-3-yl)-1,3-dioxoisoindolin-4-yl)amino)ethoxy)ethoxy)ethoxy)methyl)-14-((2S,4R)-4-hydroxy-2-((4-(4-methylthiazol-5-yl)benzyl)carbamoyl)pyrrolidine-1-carbonyl)-8,15,15-trimethyl-12-oxo-3,6,10-trioxa-13-azahexadecyl 2-((S)-4-(4-chlorophenyl)-2,3,9-trimethyl-6H-thieno[3,2-f][1,2,4]triazolo[4,3-a][1,4]diazepin-6-yl)acetate] | 0.168 µM
0.023 µM | 1.46 h⁻¹ | 0.0012 µM | 2.14 h⁻¹ | 0.021 ± 0.0054 µM | 0.014 ± 0.0075 µM | 0.01 ± 0.0044 µM | 0.012 ± 0.0058 µM | 0.11 µM | 0.31 ± 0.2 µM |  | Cc1ncsc1-c1ccc(CNC(=O)[C@@H]2C[C@@H](O)CN2C(=O)[C@@H](NC(=O)COCC(C)(COCCOCCOCCNc2cc3c(cc2F)C(=O)N(C2CCC(=O)NC2=O)C3=O)COCCOCCOC(=O)C[C@@H]2N=C(c3ccc(Cl)cc3)c3c(sc(C)c3C)-n3c(C)nnc32)C(C)(C)C)cc1 (mixture of isomers) [AB3065 (28), (14S)-8-((2-(2-(2-((2-(2,6-dioxopiperidin-3-yl)-6-fluoro-1,3-dioxoisoindolin-5-yl)amino)ethoxy)ethoxy)ethoxy)methyl)-14-((2S,4R)-4-hydroxy-2-((4-(4-methylthiazol-5-yl)benzyl)carbamoyl)pyrrolidine-1-carbonyl)-8,15,15-trimethyl-12-oxo-3,6,10-trioxa-13-azahexadecyl 2-((S)-4-(4-chlorophenyl)-2,3,9-trimethyl-6H-thieno[3,2-f][1,2,4]triazolo[4,3-a][1,4]diazepin-6-yl)acetate] | 0.0394 µM
0.0073 µM | 2.04 h⁻¹ |  | 2.66 h⁻¹ | 0.043 ± 0.0011 µM | 0.0089 ± 0.0015 µM | 0.0068 ± 0.0013 µM | 0.0059 ± 0.0023 µM | 0.134 µM | 0.081 ± 0.011 µM | ~2.6 fold | Cc1ncsc1-c1ccc([C@H](C)NC(=O)[C@@H]2C[C@@H](O)CN2C(=O)[C@@H](NC(=O)COCC(C)(COCCOCCOCCNc2cccc3c2C(=O)N(C2CCC(=O)NC2=O)C3=O)COCCOCCOCCOC(=O)C[C@@H]2N=C(c3ccc(Cl)cc3)c3c(sc(C)c3C)-n3c(C)nnc32)C(C)(C)C)cc1 (mixture of isomers) [AB3066 (24), (17S)-11-((2-(2-(2-((2-(2,6-dioxopiperidin-3-yl)-1,3-dioxoisoindolin-4-yl)amino)ethoxy)ethoxy)ethoxy)methyl)-17-((2S,4R)-4-hydroxy-2-(((S)-1-(4-(4-methylthiazol-5-yl)phenyl)ethyl)carbamoyl)pyrrolidine-1-carbonyl)-11,18,18-trimethyl-15-oxo-3,6,9,13-tetraoxa-16-azanonadecyl 2-((S)-4-(4-chlorophenyl)-2,3,9-trimethyl-6H-thieno[3,2-f][1,2,4]triazolo[4,3-a][1,4]diazepin-6-yl)acetate] | 0.038 µM
